Tests used:
[1] = test system: human peripheral blood cells; experiment: Metformin effect on mitochondrial function and lactate production of human blood cells; format: cell-based
Text: As mentioned above, increased lactate plasma levels are often observed in patients treated with drugs that may have mitochondrial-related side effects.

[2] = test system: rotenone-mediated inhibition of complex 1; experiment: Pig model of rotenone induced mitochondrial complex 1 dysfunction; format: in vivo, Yorkshire landrace hybrid pigs; conditions: rotenone infusion 7.1 mg/hr for 1.5 hours, below quantification
Procedure: To study the effect of rotenone-mediated inhibition of complex 1, Yorkshire landrace hybrid pigs were anaesthetised and implanted with venous catheters for simultaneous infusion of rotenone and Compound 1 or vehicle (PBS). Rotenone (7.1 mg/hr) was infused during 1.5 hours. Compound 1 was infused at a constant rate of 2 mg/kg/min over a period of 2.5 hours. The control animal was infused with PBS. Blood samples were taken with 30 min intervals and plasma was separated by centrifugation. Microdialysates were collected by inserting a microdialysis probe into the striatum of the brain and analysed for lactate using an ISCUS instrument (MDialysis). At the end of infusion, the animal was euthanised and terminal blood and organ samples were collected. Plasma and tissue samples were stored frozen and later analysed for succinate in an LC/MS method using a Thermo Vanquish UPLC+Thermo Quantis triple quadrupole MS instrument, an Acquity UPLC HSS C18 (100×2.1 mm, 1.8 μm) column with guard filter and gradient elution; A=0.1% Formic acid, B=Acetonitrile. [13C]-labelled succinate was used as internal standard. Lactate data were expressed as percentage of the baseline value obtained before start of rotenone infusion.

SMILES: CN(C)C(=N)N=C(N)N [Metformin]
- mitochondrial function at Complex I ([1]; human peripheral blood cells, concentrations relevant for metformin intoxication): inhibits mitochondrial function of human peripheral blood cells at Complex I in a time- and dose-dependent fashion
- lactate production ([1]; intact platelets, over time): significant increase in lactate production

SMILES: C=C(C)[C@H]1Cc2c(ccc3c2O[C@@H]2COc4cc(OC)c(OC)cc4[C@@H]2C3=O)O1 [Rotenone]
- tissue concentrations of succinate [2]: < 2 µM

Reference: patent US11565998B2, “Succinate prodrug, compositions containing the succinate prodrug and uses thereof” (ABLIVA AB, priority 2019, dated 2023)
